Test results published in patent US20220024921A1, “1,3,4-OXADIAZOLONE COMPOUND AND PHARMACEUTICAL” (NIPPON SHINYAKU CO., LTD., priority 2018, published 2022).
Structures can show the parent of a compound that is named as a salt.

Assays:
[1] = biological target: PIM3 transgenic cells (Ba/F3) (Homo sapiens, UniProt Q86V86); test: Proliferation inhibitory effect on PIM3 transgenic cells; assay type: cell-based, mouse; details: proliferation inhibition, 72 hours, Cell Counting Kit-8, read-out: PIM3 IC50
Description: (§1) Human PIM1, 2, and 3 genes were inserted into the multi-cloning sites of retrovirus expression vectors pMYs-IRES-GFP, respectively, to prepare gene transfer vectors. Then, each gene transfer vector was introduced into packaging cells PLAT-E derived from a human fetal kidney cell line in the logarithmic growth phase, using a transfection reagent (FuGENE6, Promega Corporation). Since the culture supernatant of PLAT-E after gene transfer contained virus particles for gene transfer, the culture supernatant was collected and used as a medium for gene transfer. The medium for gene transfer was added to a plate coated with RetroNectin, and the plate was incubated to attach the virus particles to the plate. Then, a mouse pro-B cell line Ba/F3 in the logarithmic growth phase was seeded on the plate and infected with the virus to prepare PIM1, 2, or 3 transgenic cells that proliferate in a PIM 1, 2, or 3-dependent manner. The expression of PIM1, 2, or 3 protein in each cell was confirmed by Western blotting.
(§2) Each test substance was prepared to 10 mM with dimethylsulfoxide (DMSO), and diluted with DMSO so as to have concentrations of 3000, 1000, 300, 100, 30, 10, 3, and 1 μM. Moreover, each dilution was further diluted 10-fold with distilled water to prepare a test substance solution.
(§3) PIM1, 2, 3-expressing cells were seeded on a 96-well plate, and each test substance solution prepared the next day was added such that final concentrations were 10000, 3000, 1000, 300, 100, 30, 10, 3, and 1 nM. 72 hours after the addition, 10 μL of Cell Counting Kit-8 (DOJINDO LABORATORIES) was added to each well. After incubation for 1 to 4 hours, absorbance OD450 at 450 nm was measured. In addition, absorption OD650 at 650 nm as a reference wavelength was measured.
(§4) OD450-OD650 for each condition was calculated, and then the inhibition rates when OD450-OD650 of negative control (DMSO only) and OD450-OD650 of Blank (without cells) were set to 0% and 100%, respectively, were calculated. Then, non-linear regression analysis was performed for logarithmic dose and inhibition rate using a two-parameter logistic model to estimate IC50 values.
(§5) For the compounds with the following Example numbers, in addition to the above proliferation inhibitory effect on PIM1 transgenic cells, the proliferation inhibitory effect on PIM2 transgenic cells and the proliferation inhibitory effect on PIM3 transgenic cells were calculated as IC50.

[2] = biological target: PIM2 transgenic cells (Ba/F3) (Homo sapiens, UniProt Q9P1W9); test: Proliferation inhibitory effect on PIM2 transgenic cells; assay type: cell-based, mouse; details: proliferation inhibition, 72 hours, Cell Counting Kit-8, read-out: PIM2 IC50
Description: as §1, §2, §3, §4, §5

[3] = biological target: T1, PIM1 serine/threonine kinase (Homo sapiens, UniProt P11309); test: PIM1 serine/threonine kinase inhibitory effect; assay type: biochemical; details: PIM1 serine/threonine kinase activity; ATP 40 μM; 30° C., 30 minutes
T1 construct: purchased Carna Bioscience, Inc
Summary of the method: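 Recombinant PIM1 (0.15 μg/ml final) with 0.5 μM biotinylated substrate and 40 μM ATP in pH 7.0 HEPES/MgCl2 buffer, 30 min at 30° C. Compound range was 0.01–10000 nM final, n=2. HTRF detection with streptavidin-XL665 and anti-phospho antibody-cryptate, 1 h; IC50 from non-linear regression of the 665/620 ratio.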

[4] = biological target: PIM1 transgenic cells (Ba/F3) (Homo sapiens, UniProt P11309); test: Proliferation inhibitory effect on PIM1 transgenic cells; assay type: cell-based, mouse; details: proliferation inhibition, 72 hours, Cell Counting Kit-8, read-out: PIM1 IC50
Summary of the method: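 Mouse Ba/F3 pro-B cells were retrovirally transduced with human PIM1 so that their proliferation depends on PIM1. Cells were treated with compound at 1–10000 nM final for 72 h, then read by CCK-8 (OD450−OD650). Inhibition was set against DMSO (0%) and no-cell blank (100%), and IC50 was obtained by two-parameter logistic regression.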

[5] = tested on: graft-versus-host disease model CB6F1 mice; test: Lymphocyte proliferation inhibitory effect using graft-versus-host disease model animals (splenomegaly formation); assay type: in vivo; details: Mus musculus, 240 h, oral, twice a day for 10 days, GVHD model CB6F1 mice, read-out: Inhibition rate (%) (splenomegaly formation); for inhibition in vivo at 3 mg/kg: single dose 3 mg/kg; for inhibition in vivo at 10 mg/kg: single dose 10 mg/kg
Description: BALB/c mice (8-week-aged female) were euthanized, and then the spleen was removed from each mouse. Then, hemolysis treatment was performed to isolate spleen cells. The obtained spleen cells were intravenously transplanted into CB6F1 mice (8-week-aged female), which are C57BL/6 and BALB/c F1 mice, to prepare a model, and splenomegaly was induced. For transplantation, spleen cells for 1.2 BALB/c mouse were used for one CB6F1 mouse.
Each test substance shown in Table 64 was weighed and dissolved in a 0.5% methyl cellulose solution, thereby preparing test substance solutions of 0.3 to 10 mg/mL.
A vehicle (0.5% methyl cellulose solution) or test substance was orally administered to each CB6F1 mouse after transplantation at a dose of 3 to 50 mg/kg in terms of body weight twice a day for 10 days from the day after transplantation. The mouse was euthanized on the 11th day from the start of administration, then the spleen was removed therefrom, and the wet weight of the spleen was measured. For each of CB6F1 mice that had not undergone transplantation as a control group, the wet weight of the spleen was also measured.
The splenomegaly formation inhibition rate when the spleen weights of the mice to which the vehicle was administered after transplantation and the mice on which transplantation had not been performed were 0% and 100%, respectively, was calculated.

[6] = tested on: graft-versus-host disease model CB6F1 mice; test: as above; assay type: in vivo; details: Mus musculus, 240 h, single dose 100 mg/kg, oral, twice a day for 10 days, GVHD model CB6F1 mice, read-out: Inhibition rate (%) (splenomegaly formation)
[7] = biological target: T2, PIM3 serine/threonine kinase (Homo sapiens, UniProt Q86V86); test: PIM3 serine/threonine kinase inhibitory effect; assay type: biochemical; details: PIM3 serine/threonine kinase activity; ATP 10 μM; 30° C., 30 minutes
T2 construct: purchased Carna Bioscience, Inc
Description: (§6) Each test substance was prepared to 10 mM with dimethylsulfoxide (DMSO), and further diluted with DMSO so as to have concentrations of 1000, 300, 100, 30, 10, 3, 1, 0.3, 0.1, 0.03, 0.01, and 0.001 μM. Moreover, each dilution was further diluted 33.3-fold with an assay buffer to prepare a test substance solution. The composition of the assay buffer was 50 mM HEPES (pH 7.0), 0.02% NaN3, 0.01% Bovine Serum Albumin, 0.1 mM Orthovanadate, 1 mM Dithiothreitol, and 5 mM MgCl2.
(§7) 5 μL of each test substance solution was added to 384-well plates (n=2), and then 2.5 μL of a substrate solution (substrate 3-biotin (Cisbio Bioassays SAS), final concentration in the reaction solution: 0.5 μM) and 2.5 μL of an ATP solution (in the cases of PIM1, 2, 3, the final concentrations in the reaction solutions were 40, 2, and 10 μM, respectively) were added, 5 μL of each of PIM1, 2, 3 serine/threonine kinase solutions (Carna Bioscience, Inc., the final concentrations in the reaction solutions were 0.15, 1.6, and 0.25 μg/ml, respectively) was finally added, and the mixture was reacted at 30° C. for 30 minutes. The test substance concentrations in the reaction solutions are 10000, 3000, 1000, 300, 100, 30, 10, 3, 1, 0.3, 0.1, and 0.01 nM.
(§8) Thereafter, 15 μL of each detection solution (62.5 nM Streptavidin-XL665 (Cisbio Bioassays SAS), […] STK antibody-Cryptate (Cisbio Bioassays SAS), 50 mM HEPES (pH 7.0), 0.8 M KF, 0.1% Bovine Serum Albumin, 20 mM ethylenediaminetetraacetic acid) was added to each well. After stirring, the mixture was reacted at 30° C. for 1 hour. Absorbance (OD620, OD665) at 620 and 665 nm was measured with a microplate reader (SpectraMax M5e, Molecular Devices, LLC).
(§9) Non-linear regression analysis was performed by an SAS system (SAS Institute Inc.) using the ratio (OD665/OD620) of the measured absorbance to calculate a test substance concentration (IC50) that inhibits PIM1 serine/threonine kinase activity by 50%.
(§10) For the compounds with the following Example numbers, in addition to the above PIM1 serine/threonine kinase activity (IC50), test substance concentrations (IC50) that inhibit PIM2 serine/threonine kinase activity and PIM3 serine/threonine kinase activity by 50% were calculated.

[8] = biological target: T3, PIM2 serine/threonine kinase (Homo sapiens, UniProt Q9P1W9); test: PIM2 serine/threonine kinase inhibitory effect; assay type: biochemical; details: PIM2 serine/threonine kinase activity; ATP 2 μM; 30° C., 30 minutes
T3 construct: purchased Carna Bioscience, Inc
Description: as §6, §7, §8, §9, §10

Sequence of PIM2 transgenic cells (Ba/F3) (Q9P1W9 whole entry, change not shown): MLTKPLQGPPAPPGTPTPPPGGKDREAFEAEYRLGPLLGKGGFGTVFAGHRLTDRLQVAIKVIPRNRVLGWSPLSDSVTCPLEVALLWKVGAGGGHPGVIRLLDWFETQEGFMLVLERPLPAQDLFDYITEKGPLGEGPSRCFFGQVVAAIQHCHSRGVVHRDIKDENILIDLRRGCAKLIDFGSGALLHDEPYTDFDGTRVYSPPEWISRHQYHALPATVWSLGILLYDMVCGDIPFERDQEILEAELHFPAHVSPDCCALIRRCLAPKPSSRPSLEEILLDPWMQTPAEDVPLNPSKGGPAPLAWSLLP
Sequence of PIM1 transgenic cells (Ba/F3) (P11309 whole entry, stated change not applied): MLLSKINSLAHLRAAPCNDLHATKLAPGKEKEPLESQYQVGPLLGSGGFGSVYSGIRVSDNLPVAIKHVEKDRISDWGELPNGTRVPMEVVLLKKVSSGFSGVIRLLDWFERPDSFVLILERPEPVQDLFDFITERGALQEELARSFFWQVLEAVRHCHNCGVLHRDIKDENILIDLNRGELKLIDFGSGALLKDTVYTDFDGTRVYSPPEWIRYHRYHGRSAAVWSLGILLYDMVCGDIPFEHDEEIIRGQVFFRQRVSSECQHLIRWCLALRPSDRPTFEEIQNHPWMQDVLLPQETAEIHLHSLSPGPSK
T1 sequence (P11309 whole entry): as the sequence (P11309 whole entry, stated change not applied) above
T3 sequence (Q9P1W9 whole entry): as the sequence (Q9P1W9 whole entry, change not shown) above

SMILES | GI50 [1] [nM] | GI50 [2] [nM] | IC50 [3] [nM] | GI50 [4] [nM] | IC50 [7] [nM] | IC50 [8] [nM] | inhibition in vivo at 3 mg/kg [5] [%] | inhibition in vivo at 10 mg/kg [5] [%] | inhibition in vivo at 100 mg/kg [6] [%] | inhibition in vivo at 25 mg/kg ([5]; single dose 25 mg/kg) [%] | inhibition in vivo at 50 mg/kg ([5]; single dose 50 mg/kg) [%]
C[C@@H]1CNCC[C@@H]1[C@H](C)Nc1cc(-c2n[nH]c(=O)o2)cc(F)c1OC(F)(F)F [Example 219, 5-[3-fluoro-5-({(1S)-1-[(3S,4S)-3-methylpiperidin-4-yl]ethyl}amino)-4-(trifluoromethoxy)phenyl]-1,3,4-oxadiazol-2(3H)-one] | 40 | 1100 | 1.8 | 11 |  |  | 27.7 | 33.8 |  |  | 
CC[C@@H]1CNCC[C@@H]1[C@H](C)Nc1cc(-c2n[nH]c(=O)o2)cc(F)c1C(F)(F)F [Example 225, 5-[3-({(1S)-1-[(3S,4S)-3-ethylpiperidin-4-yl]ethyl}amino)-5-fluoro-4-(trifluoromethyl)phenyl]-1,3,4-oxadiazol-2(3H)-one] | 51 | 390 | 1.1 | 7.6 |  |  | 18.9 | 32.3 |  |  | 
C[C@H](Nc1cc(-c2n[nH]c(=O)o2)cc(F)c1OC(F)(F)F)[C@H]1CCNC[C@H]1F [Example 224, 5-[3-fluoro-5-({(1S)-1-[(3S,4R)-3-fluoropiperidin-4-yl]ethyl}amino)-4-(trifluoromethoxy)phenyl]-1,3,4-oxadiazol-2(3H)-one] | 35 | 510 | 0.8 | 7.1 |  |  | 22.8 | 39.1 |  |  | 

Continued by falling GI50 [1], values first:

GI50 [1] [nM] | GI50 [2] [nM] | IC50 [3] [nM] | GI50 [4] [nM] | IC50 [7] [nM] | IC50 [8] [nM] | SMILES | inhibition in vivo at 3 mg/kg [5] [%] | inhibition in vivo at 10 mg/kg [5] [%] | inhibition in vivo at 100 mg/kg [6] [%] | inhibition in vivo at 25 mg/kg ([5]; single dose 25 mg/kg) [%] | inhibition in vivo at 50 mg/kg ([5]; single dose 50 mg/kg) [%]
570 | 3600 | 2 | 33 | 16 | 18 | C[C@H](Nc1cc(-c2n[nH]c(=O)o2)ccc1C(F)(F)F)C1CCNCC1 [Example 58, 5-[3-{[(1S)-1-(piperidin-4-yl)ethyl]amino}-4-(trifluoromethyl)phenyl]-1,3,4-oxadiazol-2(3H)-one hydrochloride] |  |  | 39.8 | 19 | 41.6
59 | 290 | 1.6 | 11 |  |  | C[C@H](Nc1cc(-c2n[nH]c(=O)o2)cc(F)c1C(F)(F)F)[C@H]1CCNC[C@H]1F [Example 223, 5-[3-fluoro-5-({(1S)-1-[(3S,4R)-3-fluoropiperidin-4-yl]ethyl}amino)-4-(trifluoromethyl)phenyl]-1,3,4-oxadiazol-2(3H)-one hydrochloride] | 34.1 | 36.8 |  |  | 
